In ChEMBL document CHEMBL1139487, “Discovery of corticotropin releasing factor 2 receptor selective sauvagine analogues for treatment of skeletal muscle atrophy” (J Med Chem, 2005):

Experiments:
[1] = biological target: Corticotropin-releasing factor receptor 2 (Mus musculus, UniProt Q60748); assay: In vitro effective concentration for mouse corticotropin releasing factor 2 receptor
Mus musculus = species on record: Mus musculus; assay: Selectivity ratio of EC50s for mouse corticotropin releasing factor receptors 1 and 2
[2] = biological target: Corticotropin-releasing factor receptor 2 (Mus musculus) (UniProt Q60748); assay: In vitro agonistic activity against mouse corticotropin releasing factor 2 receptor; format: functional
Sequence of Corticotropin-releasing factor receptor 2 (Mus musculus) (Q60748 whole entry): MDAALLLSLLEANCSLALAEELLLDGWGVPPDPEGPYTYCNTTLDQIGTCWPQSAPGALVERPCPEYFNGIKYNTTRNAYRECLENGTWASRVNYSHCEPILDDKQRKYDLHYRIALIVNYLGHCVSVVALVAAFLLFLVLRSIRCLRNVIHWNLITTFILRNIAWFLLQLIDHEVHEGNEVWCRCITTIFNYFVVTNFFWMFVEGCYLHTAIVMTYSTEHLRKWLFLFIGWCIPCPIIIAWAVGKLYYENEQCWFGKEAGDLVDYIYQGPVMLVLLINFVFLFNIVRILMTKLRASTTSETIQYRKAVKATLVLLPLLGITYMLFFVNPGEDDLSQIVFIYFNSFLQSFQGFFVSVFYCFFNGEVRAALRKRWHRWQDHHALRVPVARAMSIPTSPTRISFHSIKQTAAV

[3] = biological target: T1, Corticotropin-releasing factor receptor 1 (Mus musculus, UniProt P35347); assay: In vitro effective concentration for mouse corticotropin releasing factor 1 receptor
T1 sequence (P35347 whole entry): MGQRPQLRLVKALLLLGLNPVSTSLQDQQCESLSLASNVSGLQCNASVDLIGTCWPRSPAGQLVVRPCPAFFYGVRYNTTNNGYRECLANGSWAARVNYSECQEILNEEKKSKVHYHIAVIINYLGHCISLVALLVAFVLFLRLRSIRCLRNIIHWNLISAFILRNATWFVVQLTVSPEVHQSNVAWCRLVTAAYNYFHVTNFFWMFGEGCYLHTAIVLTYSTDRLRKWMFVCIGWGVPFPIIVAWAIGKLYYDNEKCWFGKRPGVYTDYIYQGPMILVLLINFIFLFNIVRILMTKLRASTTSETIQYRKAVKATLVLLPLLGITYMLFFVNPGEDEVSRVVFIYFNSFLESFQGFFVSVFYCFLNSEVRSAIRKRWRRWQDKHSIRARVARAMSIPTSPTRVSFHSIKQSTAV

[4] = biological target: T2, Corticotropin-releasing factor receptor 1 (Mus musculus) (UniProt P35347); assay: In vitro agonistic activity against mouse corticotropin releasing factor 1 receptor; format: functional
T2 sequence (whole entry): T1 sequence (P35347 whole entry)

Sequence of Corticotropin-releasing factor receptor 2 (Q60748 whole entry): as the sequence (Q60748 whole entry) above

Row | Compound | EC50 [1] [nM] | Selectivity (Mus musculus) | Emax [2] [%] | EC50 [3] [nM] | Emax [4] [%]
1 | CC[C@H](C)[C@H](NC(=O)[C@@H](NC(=O)[C@H](CC(=O)O)NC(=O)[C@H](CC(C)C)NC(=O)[C@H](CC(C)C)NC(=O)[C@H](CC(C)C)NC(=O)[C@H](CCCN=C(N)N)NC(=O)[C@H](CC(N)=O)NC(=O)[C@H](CC(N)=O)NC(=O)[C@H](C)NC(=O)[C@H](C)NC(=O)[C@H](CCC(N)=O)NC(=O)[C@H](CCC(N)=O)NC(=O)[C@H](CCCCN)NC(=O)[C@H](CCC(=O)O)NC(=O)[C@H](CCCCN)NC(=O)[C@H](CCC(=O)O)NC(=O)[C@H](CCC(N)=O)NC(=O)[C@H](CCCCN)NC(=O)[C@H](CCC(=O)O)NC(=O)[C@@H](NC(=O)[C@H](CCC(=O)O)NC(=O)[C@@H](NC(=O)[C@H](CCSC)NC(=O)[C@H](CCCCN)NC(=O)[C@H](CCCN=C(N)N)NC(=O)[C@H](CC(C)C)NC(=O)[C@H](CC(C)C)NC(=O)[C@H](Cc1c[nH]c2ccccc12)NC(=O)[C@@H](NC(=O)[C@@H]1CCCN1C(=O)[C@H](CC(C)C)NC(=O)[C@H](CC(=O)O)NC(=O)[C@@H](NC(=O)[C@H](CO)NC(=O)[C@@H](NC(=O)[C@@H]1CCCN1C(=O)[C@@H]1CCCN1C(=O)CNC(=O)[C@@H]1CCC(=O)N1)[C@@H](C)CC)[C@@H](C)CC)[C@@H](C)CC)[C@@H](C)CC)[C@@H](C)CC)[C@@H](C)O)C(=O)O | 23.4 | 24 | 94 | 562 | 99
2 | CC[C@H](C)[C@H](NC(=O)[C@@H](NC(=O)[C@H](CC(=O)O)NC(=O)[C@H](CC(C)C)NC(=O)[C@H](CC(C)C)NC(=O)[C@H](CC(C)C)NC(=O)[C@H](CCCN=C(N)N)NC(=O)[C@H](CC(N)=O)NC(=O)[C@H](CC(N)=O)NC(=O)[C@H](C)NC(=O)[C@H](C)NC(=O)[C@H](CCC(N)=O)NC(=O)[C@H](CCC(N)=O)NC(=O)[C@H](CCCCN)NC(=O)[C@H](CCC(=O)O)NC(=O)[C@H](CCCCN)NC(=O)[C@H](CCC(=O)O)NC(=O)[C@H](CCC(N)=O)NC(=O)[C@H](CCCCN)NC(=O)[C@H](CCC(=O)O)NC(=O)[C@@H](NC(=O)[C@H](CCC(=O)O)NC(=O)[C@@H](NC(=O)[C@H](CCSC)NC(=O)[C@H](CCCCN)NC(=O)[C@H](CCCN=C(N)N)NC(=O)[C@H](CC(C)C)NC(=O)[C@H](CC(C)C)NC(=O)[C@H](Cc1c[nH]c2ccccc12)NC(=O)[C@H](CCC(N)=O)NC(=O)[C@@H]1CCCN1C(=O)[C@H](CC(C)C)NC(=O)[C@H](CC(=O)O)NC(=O)[C@@H](NC(=O)[C@H](CO)NC(=O)[C@@H](NC(=O)[C@@H]1CCCN1C(=O)[C@@H]1CCCN1C(=O)CNC(=O)[C@@H]1CCC(=O)N1)[C@@H](C)CC)[C@@H](C)CC)[C@@H](C)CC)[C@@H](C)CC)[C@@H](C)O)C(=O)O | 21.7 | > 46 | 99 | > 1000 | 78
3 | CC[C@H](C)[C@H](NC(=O)[C@@H](NC(=O)[C@H](CC(=O)O)NC(=O)[C@H](CC(C)C)NC(=O)[C@H](CC(C)C)NC(=O)[C@H](CC(C)C)NC(=O)[C@H](CCCN=C(N)N)NC(=O)[C@H](CC(N)=O)NC(=O)[C@H](CC(N)=O)NC(=O)[C@H](C)NC(=O)[C@H](C)NC(=O)[C@H](CCC(N)=O)NC(=O)[C@H](CCC(N)=O)NC(=O)[C@H](CCCCN)NC(=O)[C@H](CCC(=O)O)NC(=O)[C@H](CCCCN)NC(=O)[C@H](CCC(=O)O)NC(=O)[C@H](CCC(N)=O)NC(=O)[C@H](CCCCN)NC(=O)[C@H](CCC(=O)O)NC(=O)[C@@H](NC(=O)[C@H](CCC(=O)O)NC(=O)[C@@H](NC(=O)[C@H](CCSC)NC(=O)[C@H](CCCCN)NC(=O)[C@H](CCCN=C(N)N)NC(=O)[C@H](CC(C)C)NC(=O)[C@H](CC(C)C)NC(=O)[C@H](CCC(N)=O)NC(=O)[C@@H](NC(=O)[C@@H]1CCCN1C(=O)[C@H](CC(C)C)NC(=O)[C@H](CC(=O)O)NC(=O)[C@@H](NC(=O)[C@H](CO)NC(=O)[C@@H](NC(=O)[C@@H]1CCCN1C(=O)[C@@H]1CCCN1C(=O)CNC(=O)[C@@H]1CCC(=O)N1)[C@@H](C)CC)[C@@H](C)CC)[C@@H](C)CC)[C@@H](C)CC)[C@@H](C)CC)[C@@H](C)O)C(=O)O | 24.6 | > 41 | 78 | > 1000 | 6
4 | CC[C@H](C)[C@H](NC(=O)[C@@H](NC(=O)[C@H](CC(=O)O)NC(=O)[C@H](CC(C)C)NC(=O)[C@H](CC(C)C)NC(=O)[C@H](CC(C)C)NC(=O)[C@H](CCCN=C(N)N)NC(=O)[C@H](CC(N)=O)NC(=O)[C@H](CC(N)=O)NC(=O)[C@H](C)NC(=O)[C@H](C)NC(=O)[C@H](CCC(N)=O)NC(=O)[C@H](CCC(N)=O)NC(=O)[C@H](CCCCN)NC(=O)[C@H](CCC(=O)O)NC(=O)[C@H](CCCCN)NC(=O)[C@H](CCC(=O)O)NC(=O)[C@H](CCC(N)=O)NC(=O)[C@H](CCCCN)NC(=O)[C@H](CCC(=O)O)NC(=O)[C@@H](NC(=O)[C@H](CCC(=O)O)NC(=O)[C@@H](NC(=O)[C@H](CCSC)NC(=O)[C@H](CCCCN)NC(=O)[C@H](CCCN=C(N)N)NC(=O)[C@H](CC(C)C)NC(=O)[C@H](CC(C)C)NC(=O)[C@@H](NC(=O)[C@@H](NC(=O)[C@@H]1CCCN1C(=O)[C@H](CC(C)C)NC(=O)[C@H](CC(=O)O)NC(=O)[C@@H](NC(=O)[C@H](CO)NC(=O)[C@@H](NC(=O)[C@@H]1CCCN1C(=O)[C@@H]1CCCN1C(=O)CNC(=O)[C@@H]1CCC(=O)N1)[C@@H](C)CC)[C@@H](C)CC)[C@@H](C)O)[C@@H](C)CC)[C@@H](C)CC)[C@@H](C)CC)[C@@H](C)O)C(=O)O | 19.1 | > 52 | 94 | > 1000 | 42
5 | CC[C@H](C)[C@H](NC(=O)[C@@H](NC(=O)[C@H](CC(=O)O)NC(=O)[C@H](CC(C)C)NC(=O)[C@H](CC(C)C)NC(=O)[C@H](CC(C)C)NC(=O)[C@H](CCCN=C(N)N)NC(=O)[C@H](CC(N)=O)NC(=O)[C@H](CC(N)=O)NC(=O)[C@H](C)NC(=O)[C@H](C)NC(=O)[C@H](CCC(N)=O)NC(=O)[C@H](CCC(N)=O)NC(=O)[C@H](CCCCN)NC(=O)[C@H](CCC(=O)O)NC(=O)[C@H](CCCCN)NC(=O)[C@H](CCC(=O)O)NC(=O)[C@H](CCC(N)=O)NC(=O)[C@H](CCCCN)NC(=O)[C@H](CCC(=O)O)NC(=O)[C@@H](NC(=O)[C@H](CCC(=O)O)NC(=O)[C@@H](NC(=O)[C@H](CCSC)NC(=O)[C@H](CCCCN)NC(=O)[C@H](CCCN=C(N)N)NC(=O)[C@H](CC(C)C)NC(=O)[C@H](CC(C)C)NC(=O)[C@H](Cc1c[nH]c2ccccc12)NC(=O)[C@H](Cc1ccc(O)cc1)NC(=O)[C@@H]1CCCN1C(=O)[C@H](CC(C)C)NC(=O)[C@H](CC(=O)O)NC(=O)[C@@H](NC(=O)[C@H](CO)NC(=O)[C@@H](NC(=O)[C@@H]1CCCN1C(=O)[C@@H]1CCCN1C(=O)CNC(=O)[C@@H]1CCC(=O)N1)[C@@H](C)CC)[C@@H](C)CC)[C@@H](C)CC)[C@@H](C)CC)[C@@H](C)O)C(=O)O | 4 | 47 | 100 | 187 | 100
6 | CC[C@H](C)[C@H](NC(=O)[C@@H](NC(=O)[C@H](CC(=O)O)NC(=O)[C@H](CC(C)C)NC(=O)[C@H](CC(C)C)NC(=O)[C@H](CC(C)C)NC(=O)[C@H](CCCN=C(N)N)NC(=O)[C@H](CC(N)=O)NC(=O)[C@H](CC(N)=O)NC(=O)[C@H](C)NC(=O)[C@H](C)NC(=O)[C@H](CCC(N)=O)NC(=O)[C@H](CCC(N)=O)NC(=O)[C@H](CCCCN)NC(=O)[C@H](CCC(=O)O)NC(=O)[C@H](CCCCN)NC(=O)[C@H](CCC(=O)O)NC(=O)[C@H](CCC(N)=O)NC(=O)[C@H](CCCCN)NC(=O)[C@H](CCC(=O)O)NC(=O)[C@@H](NC(=O)[C@H](CCC(=O)O)NC(=O)[C@@H](NC(=O)[C@H](CCSC)NC(=O)[C@H](CCCCN)NC(=O)[C@H](CCCN=C(N)N)NC(=O)[C@H](CC(C)C)NC(=O)[C@H](CC(C)C)NC(=O)[C@H](Cc1ccccc1)NC(=O)[C@H](Cc1c[nH]cn1)NC(=O)[C@@H]1CCCN1C(=O)[C@H](CC(C)C)NC(=O)[C@H](CC(=O)O)NC(=O)[C@@H](NC(=O)[C@H](CO)NC(=O)[C@@H](NC(=O)[C@@H]1CCCN1C(=O)[C@@H]1CCCN1C(=O)CNC(=O)[C@@H]1CCC(=O)N1)[C@@H](C)CC)[C@@H](C)CC)[C@@H](C)CC)[C@@H](C)CC)[C@@H](C)O)C(=O)O | 7.8 | 10 | 98 | 80.9 | 100
7 | CC[C@H](C)[C@H](NC(=O)[C@@H](NC(=O)[C@H](CC(=O)O)NC(=O)[C@H](CC(C)C)NC(=O)[C@H](CC(C)C)NC(=O)[C@H](CC(C)C)NC(=O)[C@H](CCCN=C(N)N)NC(=O)[C@H](CC(N)=O)NC(=O)[C@H](CC(N)=O)NC(=O)[C@H](C)NC(=O)[C@H](C)NC(=O)[C@H](CCC(N)=O)NC(=O)[C@H](CCC(N)=O)NC(=O)[C@H](CCCCN)NC(=O)[C@H](CCC(=O)O)NC(=O)[C@H](CCCCN)NC(=O)[C@H](CCC(=O)O)NC(=O)[C@H](CCC(N)=O)NC(=O)[C@H](CCCCN)NC(=O)[C@H](CCC(=O)O)NC(=O)[C@@H](NC(=O)[C@H](CCC(=O)O)NC(=O)[C@@H](NC(=O)[C@H](CCSC)NC(=O)[C@H](CCCCN)NC(=O)[C@H](CCCN=C(N)N)NC(=O)[C@H](CC(C)C)NC(=O)[C@H](CC(C)C)NC(=O)[C@@H](NC(=O)[C@H](Cc1ccc(O)cc1)NC(=O)[C@@H]1CCCN1C(=O)[C@H](CC(C)C)NC(=O)[C@H](CC(=O)O)NC(=O)[C@@H](NC(=O)[C@H](CO)NC(=O)[C@@H](NC(=O)[C@@H]1CCCN1C(=O)[C@@H]1CCCN1C(=O)CNC(=O)[C@@H]1CCC(=O)N1)[C@@H](C)CC)[C@@H](C)CC)[C@@H](C)O)[C@@H](C)CC)[C@@H](C)CC)[C@@H](C)O)C(=O)O | 8.8 | 21 | 100 | 189 | 99
